Laboratory results: US10106818B2, “Dual-color HIV reporter system for the detection of latently-infected cells” (priority 2013, dated 2018)

Key:
[1] = tested on: latent HIV in 89mASG- and R7GEmC-infected single-positive Jurkat T cells; test: Reactivation of latent HIV in sorted single-positive (latent) Jurkat T cells, FACS; format: cell-based, HIV-1; details: for reactivation activity (percent population in the productive gate): 89mASG and R7GEmC single-positive latent populations, 30, 10 and 3 μM; for expression of HIV promoter-dependent reporter: 89mASG and R7GEmC latent Jurkat T cells, 10 ng/ml TNFα, 5 μM prostratin or 2.5 μM SAHA alone
[2] = tested on: latent provirus in mCherry-only R7GEmC-infected primary CD4+ T cells; test: Reactivation of sorted mCherry-only (latent) primary CD4+ T cells infected with R7GEmC; format: cell-based, HIV-1; details: for response of mCherry-only positive cells to treatment: three pooled donors, 1 μM prostratin, 1 μM SAHA
Procedure: HEK293T, Jurkat, A301 and SupT1 cell lines were obtained from ATCC. Suspension cells were cultured in RPMI 1640 supplemented with 10% FBS, 100 U/ml penicillin, […] streptomycin and 2 mM L-glutamine (PSG) (37° C., 5% CO2). Peripheral blood from healthy human donors was obtained from the Stanford Blood Center and processed the day of collection. CD4^+ T cells were isolated with RosetteSep Human CD4^+ T-Cell Enrichment Cocktail (Stem Cell Technologies) and cultured in human cell medium (HCM, RPMI, 10% human AB pooled serum, PSG). Resting CD4^+ T cells were activated in U-bottom 96-well TC plates with 25 μl human anti-CD3 and anti-CD28-coated dynabeads/10^6 cells (48 h). Dynabeads were removed by magnetic separation and cells seeded in HCM with 30 IU/ml rhIL-2. Cell lines and activated CD4^+ cells were infected by spinoculation (Lassen et al., PLoS One. 2012; 7(1):e30176, which is hereby incorporated by reference in its entirety) with a virus amount equivalent to 20 ng p24 or as indicated. Viral infection was assessed by fluorescence activated cell sorting (FACS) analysis after 72 h. At 5 days post-infection, cells were sorted to separate negative, single- or double-positive cells. Sorted cell lines were treated after re-expansion for 5-15 days. Cells were seeded in 96-well U plates and treated for 24 h before analysis. […]
The extent to which mCherry-only-positive populations could be reactivated by further stimulation was next evaluated. […]
(a) FACS analysis of activated CD4^+ T cells from two human donors (#1, #2) infected with R7GEmC at indicated virus amounts. (b) Fluorescence microscopy image of infected CD4^+ T cells showing mCherry-positive (latent, red) and GFP-positive (active, green) cells. (c) qPCR quantification of proviral DNA in the sorted populations, using primer-probe combinations for the HIV-1 gag gene and the RNAseP gene for normalization. […] (d) Western blot quantification of HIV gag and cell α-actin in sorted CD4^+ T cell populations from pooled donors. […]

HIV RNA expression = details: recent study; cited from earlier work
[3] = tested on: latent HIV in sorted GFP-only 89mASG-infected Jurkat cells; test: High-throughput imaging screen for latent HIV reactivation (Tocriscreen library); format: cell-based, HIV-1; details: 24 hr; for red signal (mApple, reactivated virus) versus negative controls: positive control wells, 10 ng/ml TNFα, 5 μM prostratin or 2.5 μM SAHA and combinations; for reactivation of latent HIV in the screen: 30 μM, total red area higher than median+2 SD of negative control wells
From the text: (§1) Sorted 89mASG-infected, GFP-only-positive Jurkat cells were used to test the Tocriscreen drug library for latent HIV reactivation (see Methods). (a) Dot plot showing quantification of total blue area (Hoechst 33342 signal, total cell) against total red area (mApple signal, reactivated HIV). Red dots indicate the position of untreated wells (Negative controls); the shaded area indicates the median±2SD of the red/blue area ratio for negative control wells. Green dots indicate positive control wells, treated with 10 ng/ml TNFα, 5 μM prostratin or 2.5 μM SAHA and their combinations. […] Representative FACS plots of sorted single-positive Jurkat T cells for both viruses. The productive gate contains the reactivated cells. […] (c,d) Histogram plot of percent population in the productive gate (grey) for each treatment and percentage of cells in the live gate (light blue) for sorted single-positive Jurkat T cells for 89mASG (c) and R7GEmC (d) reporters. Data shown as mean±SD for three different treatments. For each compound, a grey triangle between the histograms indicates decreasing drug concentration (30, 10 and 3 μM). […] (e) FACS analysis of drug treatments combined with 0.5 μM SAHA, 0.5 μM prostratin and 0.5 ng/ml TNFα. Representative FACS plots of sorted GFP-only-positive Jurkat T cells for 89mASG treated with DMSO (control), SAHA (0.5 μM) alone or with terreic acid (10 μM) and dilazep (30 μM). (f) Histogram plot of percent population of the sorted cells in the productive gate for each treatment at indicated concentrations (μM).

[4] = tested on: latent HIV in sorted latent-cell populations (GFP-only-positive 89mASG Jurkat T cells); test: Co-treatment with low levels of SAHA, prostratin or TNFα, FACS; format: cell-based, HIV-1; details: 24 h; for effect on HIV latency in combination with SAHA: 10 μM with low SAHA (0.5 μM); for interaction with prostratin: with low prostratin (0.5 μM)
From the text: Thus, it might be of interest to identify compounds that can potentiate HIV reactivation by SAHA or prostratin or TNFα.
as §1

[5] = tested on: R7GEmC infection of activated CD4+ T cells; test: Infection of activated CD4+ T cells with R7GEmC in the presence of integrase inhibitor (pre-integration latency); format: cell-based, HIV-1; details: 30 μM Raltegravir; after 3 days
From the text: HIV latency in vivo is reported to result, in part, from pre-integration latency, whereby unintegrated proviral DNA (after full retrotranscription) is maintained in a stable cytoplasmic form in a quiescent cell, and can respond to cell activation by de novo integration and productive infection. To rule out pre-integration latency, activated CD4^+ T cells were infected with R7GEmC in the presence of the HIV integrase inhibitor raltegravir (FIG. 6A).
(a) FACS analysis of activated CD4^+ T cells from two human donors (#1, #2) infected with R7GEMC alone or with 30 μM Raltegravir (RALTE 30). (b) Analysis of sorted CD4^+ T-cell populations from donors 1 and 2, after 48 h with anti-CD3/CD28-coated Dynabeads (αCD3/28), alone, with 30 μM Raltegravir, or untreated (CTR).

Q: With N#C/C(=C\c1ccc(O)c(O)c1)C(=O)NCCCc1ccccc1 [AG555, α-Cyano-(3,4-dihydroxy)-N-(3-phenylpropyl)cinnamide] as the compound, how does the “reactivation activity (percent population in the productive gate)” value [1] read?
A: slight but significant reactivation activity

Q: With O=C1C(SCCO)=C(SCCO)C(=O)c2ccccc21 [NSC 95397] as the compound, how does the “reactivation activity (percent population in the productive gate)” value [1] read?
A: clear artifacts or false positives

Q: What does the source list for O=C(CCCCCCC(=O)Nc1ccccc1)NO [SAHA, suberoylanilide hydroxamic acid]?
A: response of mCherry-only positive cells to treatment [2]: A subset of less-bright mCherry-only positive cells also responded; reactivation of HIV RNA expression in patients (HIV RNA expression): can reactivate HIV RNA expression in a subset of patients; expression of HIV promoter-dependent reporter [1]: increased expression of HIV promoter-dependent reporter; red signal (mApple, reactivated virus) versus negative controls [3]: notably higher red signal

Q: For CN1CCc2cccc3c2[C@H]1Cc1ccc(O)c(O)c1-3 [apomorphin, apomorphine], which “reactivation activity (percent population in the productive gate)” value [1] is on record?
A: distinct effects in the two HIV clones

Q: Which results are given for COc1cc(C(=O)OCCCN2CCCN(CCCOC(=O)c3cc(OC)c(OC)c(OC)c3)CC2)cc(OC)c1OC [dilazep]?
A: effect on HIV latency in combination with SAHA [4]: strongly enhanced the effect of low SAHA concentrations; interaction with prostratin [4]: synergistic with prostratin; reactivation activity (percent population in the productive gate) [1]: slight but significant reactivation activity

Q: For O=c1c(-c2ccc(O)cc2)coc2cc(O)cc(O)c12 [genistein], which “reactivation of latent HIV in the screen” value [3] is on record?
A: reactivated latent HIV

Q: Which “response of mCherry-only positive cells to treatment” value [2] does the source give for CC(=O)O[C@@]12C[C@@H](C)[C@@]3(O)[C@@H](C=C(CO)C[C@]4(O)C(=O)C(C)=C[C@@H]34)[C@@H]1C2(C)C [prostratin, (1aR,1bS,4aR,7aS,7bR,8R,9aS)-4a,7b-dihydroxy-3-(hydroxymethyl)-1,1,6,8-tetramethyl-5-oxo-1,1a,1b,4,4a,5,7a,7b,8,9-decahydro-9aH-cyclopropa[3,4]benzo[1,2-e]azulen-9a-yl] here?
A: A subset of less-bright mCherry-only positive cells also responded

Q: And the “expression of HIV promoter-dependent reporter” value [1]?
A: increased expression of HIV promoter-dependent reporter

Q: What about the “red signal (mApple, reactivated virus) versus negative controls” value [3] of the same compound?
A: notably higher red signal

Q: Which results are given for Cc1nnc(C(=O)NC(C)(C)c2nc(C(=O)NCc3ccc(F)cc3)c(O)c(=O)n2C)o1 [raltegravir]?
A: effect on viral reactivation in the mCherry-only-positive population ([2]; 30 μM Raltegravir with anti-CD3/CD28-coated Dynabeads, 48 h): did not reduce viral reactivation; integration-independent expression of the fluorescent proteins [5]: no integration-independent expression of the fluorescent proteins

Q: Which “reactivation of latent HIV in the screen” value [3] does the source give for Oc1ccc(C=Cc2cc(O)cc(O)c2)cc1 [resveratrol] here?
A: reactivated latent HIV

Q: For CC1=C(O)C(=O)[C@@H]2O[C@@H]2C1=O [terreic acid, (−)-terreic acid], which “effect on HIV latency in combination with SAHA” value [4] is on record?
A: strongly enhanced the effect of low SAHA concentrations

Q: What about the “interaction with TNFα” value ([4]; with low TNFα (0.5 ng/ml)) of the same compound?
A: synergistic interaction in most combinations except terreic acid

Q: And the interaction with prostratin [4]?
A: synergistic with prostratin

Q: What about the “reactivation activity (percent population in the productive gate)” value [1] of the same compound?
A: slight but significant reactivation activity

Q: For TNF-α, which “expression of HIV promoter-dependent reporter” value [1] is on record?
A: increased expression of HIV promoter-dependent reporter

Q: What about the “red signal (mApple, reactivated virus) versus negative controls” value [3] of the same compound?
A: notably higher red signal
